Data: patent US10653756B2, “Identification of CD8+ T cells that are CD161hi and/or IL18R(α)hi and have rapid drug efflux capacity” (FRED HUTCHINSON CANCER RESEARCH CENTER, priority 2008, dated 2020)

Key:
[1] = system: CMhi and EMhi CD8+ T cells; assay: Daunorubicin-induced apoptosis of sorted CM and EM subsets, Annexin V/DAPI; assay type: cell-based, human
Text: CMhi and EMhi and their non-effluxing IL-18Rα^lo/neg counterparts (CMlo and EMlo) were isolated using negative immunomagnetic selection of CD8^+ T cells with biotinylated antibodies to non-CD8^+ T cells, followed by surface labeling with fluorochrome-conjugated streptavidin to identify non-CD8^+ T cells, CD95, CD62L and IL-18Rα and sorting on a BD FacsARIA flow sorter. CM and EM CD8^+ T cells were defined as streptavidin^−/CD95^+/CD62L^+ or streptavidin^−/CD95^+/CD62L^−, respectively. CMhi and EMhi were defined by high expression of IL-18Rα. Effluxing and non-effluxing CM and EM subsets were cultured for 44 hours in the presence or absence of daunorubicin (an anthracycline chemotherapeutic agent, effluxed by the ABC-B1 cotransporter, MDR-1), with or without MDR-1 blockade with the peripheral benzodiazepine receptor antagonist, PK11195. Cultures were harvested, washed twice with cold PBS and stained with Annexin V and DAPI before analysis.

[2] = system: CM and EM CD8+ T lymphocytes; assay: Rh123 efflux assay with or without vinblastine, flow cytometry; assay type: cell-based, human; details: PBMC loaded with 10 μg/ml Rh123, efflux 30 minutes at 37° C.
Protocol: PBMC were separated from fresh peripheral blood by density gradient centrifugation, washed in RPMI 1640/10% bovine serum albumin (herein known as efflux buffer) and resuspended at 1×10^6/ml in ice cold efflux buffer with 10 μg/ml Rh123. PBMC were incubated for 30 minutes on ice before washing three times in ice cold efflux buffer and resuspending in pre-warmed efflux buffer, with or without vinblastine, for 30 minutes at 37° C. At 30 minutes, PBMC were washed once in ice cold PBS/0.2% BSA (FACS buffer) and labeled with antibodies to CD4, CD16, TCRγδ, Vα24, CD3, CD8α, CD95, CD62L, CD161 and IL-18Rα for 20 minutes on ice. After washing in ice cold FACS buffer, samples were analyzed on a BD FacsARIA flow cytometer.
CM and EM subsets were identified as CD62L^+ or CD62L^− events, respectively, in the CD4^−/CD16^−/TCRγδ^−/Vα24^−/CD3^+/CD8^+/CD95^+ population. Rh123 fluorescence was identified with appropriate compensation and a 530/30 emission filter after laser excitation at 488 nm. Rh123-effluxing events were defined as those with fluorescence lower than the mean fluorescence intensity identified after culture in the presence of vinblastine efflux blockade.

[3] = biological target: MDR-1 (Homo sapiens, UniProt P08183); details: daunorubicin loaded at 2.5 μM, efflux 1 hour at 37° C.; vinblastine 25 μM; PK11195 and cyclosporine A data not shown
Sequence of MDR-1 (P08183 whole entry): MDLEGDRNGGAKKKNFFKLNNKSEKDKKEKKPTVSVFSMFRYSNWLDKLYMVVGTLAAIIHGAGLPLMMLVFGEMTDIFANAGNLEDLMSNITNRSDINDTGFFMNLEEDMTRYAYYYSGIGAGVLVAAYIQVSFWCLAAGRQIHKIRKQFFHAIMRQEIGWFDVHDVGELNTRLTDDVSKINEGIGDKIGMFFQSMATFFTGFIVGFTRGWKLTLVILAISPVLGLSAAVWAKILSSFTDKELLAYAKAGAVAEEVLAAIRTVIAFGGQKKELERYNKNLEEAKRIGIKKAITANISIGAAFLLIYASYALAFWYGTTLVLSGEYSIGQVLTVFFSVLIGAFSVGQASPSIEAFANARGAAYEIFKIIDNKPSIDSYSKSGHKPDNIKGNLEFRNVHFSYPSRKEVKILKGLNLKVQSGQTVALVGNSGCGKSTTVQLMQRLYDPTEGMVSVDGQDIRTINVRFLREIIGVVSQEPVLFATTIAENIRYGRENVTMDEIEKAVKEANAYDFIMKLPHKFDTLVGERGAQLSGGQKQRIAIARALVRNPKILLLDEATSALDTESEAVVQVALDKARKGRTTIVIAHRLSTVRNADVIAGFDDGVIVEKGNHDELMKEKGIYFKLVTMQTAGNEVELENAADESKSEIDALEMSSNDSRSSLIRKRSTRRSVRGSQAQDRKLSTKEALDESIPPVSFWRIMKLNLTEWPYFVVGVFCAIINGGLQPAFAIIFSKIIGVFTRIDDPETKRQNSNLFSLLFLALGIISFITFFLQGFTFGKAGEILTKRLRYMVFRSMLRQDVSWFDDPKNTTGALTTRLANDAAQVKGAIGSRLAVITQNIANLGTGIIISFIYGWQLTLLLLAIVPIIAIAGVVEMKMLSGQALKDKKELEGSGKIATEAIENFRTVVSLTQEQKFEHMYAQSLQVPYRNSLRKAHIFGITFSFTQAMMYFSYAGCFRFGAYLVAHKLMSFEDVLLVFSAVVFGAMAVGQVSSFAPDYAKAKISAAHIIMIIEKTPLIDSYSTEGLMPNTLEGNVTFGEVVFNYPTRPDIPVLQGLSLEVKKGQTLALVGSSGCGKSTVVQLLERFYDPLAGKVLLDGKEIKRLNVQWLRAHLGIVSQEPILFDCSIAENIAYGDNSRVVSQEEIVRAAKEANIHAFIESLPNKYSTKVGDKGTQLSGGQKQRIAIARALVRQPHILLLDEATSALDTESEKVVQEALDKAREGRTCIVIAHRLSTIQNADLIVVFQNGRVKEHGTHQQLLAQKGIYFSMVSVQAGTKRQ

CCC(C)N(C)C(=O)c1cc2ccccc2c(-c2ccccc2Cl)n1 (centres unmarked) [PK11195]
Viability of subsets cultured with PK11195 alone ([1]; PK11195 without daunorubicin, 44 hours culture): does not impair viability | Cell death of CMhi and EMhi on MDR-1 inhibition during daunorubicin culture ([1]; daunorubicin with PK11195, 44 hours culture): increased cell death

COc1cccc2c1C(=O)c1c(O)c3c(c(O)c1C2=O)C[C@@](O)(C(C)=O)C[C@@H]3O[C@H]1C[C@H](N)[C@H](O)[C@H](C)O1 [daunorubicin]
Apoptosis of CMhi and EMhi induced by culture with daunorubicin ([1]; daunorubicin 0.1 uM, 44 hours culture): resistant to apoptosis

CC[C@]1(O)C[C@@H]2CN(CCc3c([nH]c4ccccc34)[C@@](C(=O)OC)(c3cc4c(cc3OC)N(C)[C@H]3[C@@](O)(C(=O)OC)[C@H](OC(C)=O)[C@]5(CC)C=CCN6CC[C@]43[C@@H]65)C2)C1 [vinblastine]
Rh123 efflux in the presence of vinblastine [2]: blocked | Inhibition of daunorubicin efflux from CMhi and EMhi [3]: inhibition of efflux
